What was measured:
Assay in all cases: area over the GR curve, 72 h; higher = more effect;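 further: Dye Drop or Deep Dye Drop imaging of viable cells in 384-well plates (Hoechst nuclei, LIVE/DEAD dye), nine half-log doses, GR normalized to DMSO controls and time-zero plates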
184A1 = tested on: 184A1
BT20 = tested on: BT20
CAMA1 = tested on: CAMA1
EFM19 = tested on: EFM19
HCC1806 = tested on: HCC1806
HCC38 = tested on: HCC38
HCC70 = tested on: HCC70
MDAMB175VII = tested on: MDAMB175VII
MDAMB231 = tested on: MDAMB231
MDAMB330 = tested on: MDAMB330
MDAMB453 = tested on: MDAMB453
MGH312 = tested on: MGH312
UACC812 = tested on: UACC812

Row | Structure (SMILES) | area over the GR curve (184A1) [GR] | area over the GR curve (BT20) [GR] | area over the GR curve (CAMA1) [GR] | area over the GR curve (EFM19) [GR] | area over the GR curve (HCC1806) [GR] | area over the GR curve (HCC38) [GR] | area over the GR curve (HCC70) [GR] | area over the GR curve (MDAMB175VII) [GR] | area over the GR curve (MDAMB231) [GR] | area over the GR curve (MDAMB330) [GR] | area over the GR curve (MDAMB453) [GR] | area over the GR curve (MGH312) [GR] | area over the GR curve (UACC812) [GR]
1 | CCC(=O)Nc1ccc(C(=O)Nc2ccc(Nc3ncc4c(n3)N(C)c3ccc(C)cc3C(=O)N4C)cc2)cc1 [FMF-03-145-1] | 1 | 1.2 | 0.393 | 0.341 | 1.08 | 0.581 | 1.31 | 0.919 | 0.947 | 0.814 | 0.392 | 1.28 | 1.04
2 | COc1cc(N2CCN(C)CC2)ccc1Nc1ncc2c(n1)N(C)c1ccccc1C(=O)N2CC(F)(F)F [FMF-03-146-1] | 0.0018 | 0.0278 | -0.0223 | 0.0185 | 0.0215 | 0.0485 | -0.0097 | 0.0733 | 0.0225 | 0.0128 | 0.0207 | 0.025 | 0.0144
3 | CN1CC[C@H](c2c(O)cc(O)c3c(=O)cc(-c4ccccc4Cl)oc23)[C@H](O)C1 [Flavopiridol] (max 1 µM) | 0.418 | 0.334 | 0.253 | 0.191 | 0.257 | 0.29 | 0.415 | 0.413 | 0.286 | 0.285 | 0.272 | 0.452 | 0.419
4 | CC(C)n1nc(-c2ccc3oc(N)nc3c2)c2c(N)ncnc21 [INK128/MLN0128] (max 3.162 µM) | 0.581 | 0.568 | 0.64 | 0.682 | 0.39 | 0.536 | 0.702 | 1.17 | 0.486 | 1.08 | 0.756 | 1.22 | 1.22
5 | CC(C)NC[C@@H](C(=O)N1CCN(c2ncnc3c2[C@H](C)C[C@H]3O)CC1)c1ccc(Cl)cc1 [Ipatasertib/GDC0068] (max 10 µM) | 0.12 | 0.311 | 0.412 | 0.185 | 0.0145 | 0.122 | 0.488 | 0.456 | 0.0065 | 0.421 | 0.27 | 0.933 | 0.173
6 | CN(C)C(=O)c1cc2cnc(Nc3ccc(N4CCNCC4)cn3)nc2n1C1CCCC1 [LEE011/Ribociclib] (max 10 µM) | 0.449 | 0.433 | 0.651 | 0.315 | 0.141 | 0.417 | -0.0535 | 0.8 | 0.365 | 0.824 | 0.555 | -0.0019 | 0.642
7 | CCNC(=O)c1noc(-c2cc(C(C)C)c(O)cc2O)c1-c1ccc(CN2CCOCC2)cc1 [Luminespib/NVP-AUY922] (max 1 µM) | 0.539 | 0.559 | 0.535 | 0.35 | 0.539 | 0.624 | 0.732 | 0.774 | 0.645 | 0.887 | 0.848 | 0.962 | 0.881
8 | CCOc1cc2ncc(C#N)c(Nc3ccc(OCc4ccccn4)c(Cl)c3)c2cc1NC(=O)/C=C/CN(C)C [Neratinib/HKI272] (max 3.162 µM) | 0.421 | 0.147 | 0.0703 | 0.0236 | 0.191 | 0.102 | 0.317 | 1.45 | 0.105 | 1.18 | 0.553 | 0.373 | 1.03
9 | O=C(c1cc(Cc2n[nH]c(=O)c3ccccc23)ccc1F)N1CCN(C(=O)C2CC2)CC1 [Olaparib/AZD2281] (max 10 µM) | 0.0908 | 0.0657 | 0.0527 | 0.0595 | 0.0953 | 0.0719 | -0.0522 | 0.0102 | 0.0581 | 0.0605 | 0.241 | 0.0149 | -0.0835
10 | CC(=O)O[C@H]1C(=O)[C@@]2(C)[C@H]([C@H](OC(=O)c3ccccc3)[C@]3(O)C[C@H](OC(=O)[C@H](O)[C@@H](NC(=O)c4ccccc4)c4ccccc4)C(C)=C1C3(C)C)[C@]1(OC(C)=O)CO[C@@H]1C[C@@H]2O [Paclitaxel] (max 1 µM) | 0.75 | 0.985 | 0.953 | 0.874 | 0.838 | 0.843 | 0.977 | 0.837 | 0.702 | 0.846 | 0.658 | 0.973 | 1.44
11 | CS(=O)(=O)N1CCN(Cc2cc3nc(-c4cccc5[nH]ncc45)nc(N4CCOCC4)c3s2)CC1 [Pictilisib/GDC0941] (max 10 µM) | 0.276 | 0.296 | 0.262 | 0.439 | 0.118 | 0.118 | 0.573 | 0.417 | 0.206 | 0.53 | 0.391 | 0.771 | 0.6
12 | O=C1NC(=NCc2cccs2)SC1=Cc1ccc2ncccc2c1 [R0-3306] (max 10 µM) | 0.207 | 0.109 | 0.0858 | 0.132 | 0.085 | 0.0714 | 0.0814 | 0.239 | 0.0059 | 0.0605 | 0.102 | 0.0994 | 0.142
13 | CNCc1ccc(-c2[nH]c3cc(F)cc4c3c2CCNC4=O)cc1 [Rucaparib] (max 10 µM) | 0.0986 | 0.0785 | 0.0981 | 0.0332 | 0.117 | 0.139 | -0.0415 | 0.136 | 0.0793 | 0.107 | 0.14 | 0.189 | 0.0535
